The values below come from patent US11771735B2, “Composition for improving or preventing nonalcoholic fatty liver” (KOHJIN LIFE SCIENCES CO., LTD., priority 2015, dated 2023).

Each structure is given as a SMILES string.

Experiment [1] relates to Mice (C57/B6J) fed with high-fat food. As to conditions: 20 weeks old. An excerpt:
Mice (C57/B6J, 8 weeks old male) were divided into 4 groups (5 animals each), and the first group (DB) was freely fed with ordinary food (CertifiedDiet “MF” manufactured by Oriental Yeast Co., ltd.). The second group (HFD) was freely fed with high-fat food (High Fat Diet 32, manufactured by CLEA Japan, Inc.), […].
When the mouse was 20 weeks old, the body weight, the liver weight, the serum aspartate aminotransferase (AST), the alanine aminotransferase (ALT), the serum triglyceride (TG), the free fatty acid value (FFA) and the total cholesterol value (T-cho) were measured.

In experiment [2] the test system is subjects who had NAFLD in 31 IU/L or more of ALT. The following applies: Case IDs 1 to 9 (group affected); at least one week after initiation; oral 300 mg per day.
Setting [3] is: HFD6 (6 mg/kg/day) and HFD60 (60 mg/kg/day) groups in comparison to HFD group.
[4] abbreviates: high-fat food mice, glutathione 6 and 60 mg/kg/day in water.

On to `N[C@@H](CCC(=O)N[C@@H](CS)C(=O)NCC(=O)O)C(=O)O` [glutathione], for which, in experiment [1] (setting [3]), the “serum ALT” value is “significant decrease”, the “serum AST” value is given as “significant decrease”, the “serum FFA (free fatty acid value)” value was “significant decrease” and the “serum T-cho (total cholesterol value)” value is on record as “significant decrease”. Besides, the “serum TG (triglyceride value)” value in experiment [1] (setting [3]) was “significant decrease”. Also, in experiment [1] (setting [4]), the liver weight entry was “the liver weight decreased dependently on the concentration” and the “ratio of liver weight/body weight” value was “decrease of the body weight ratio was also recognized”. For the same compound, the body weight result in experiment [1] (high-fat food mice, glutathione 6 or 60 mg/kg/day in water) is “decrease of the body weight was recognized”. For the same compound, the “improvement of ALT after the administration versus before administration (0 wk)” value in experiment [2] is reported as at least 20%.
